Laboratory results reported in US8287923B2, “Compositions and methods for treating immune disorders” (priority 2005, dated 2012).

System: normal human epidermal keratinocytes (NHEK)
Test: Affymetrix gene array analysis, autoantigen gene expression
Assay type: cell-based
Settings: 100 μM
Method: The gene array experiment was performed at the Core Facility of Genomics of the Medical College of Georgia, according to the instructions of the manufacturer (Affymetrix, Santa Clara, Calif.). Briefly, NHEK and OSC2 cells treated with 100 μM EGCG for different time period were extracted for total RNA, the RNA was processed for probes and hybridized with a cDNA microarray (HuG133A, Affymetrix) which represents 22,283 human series. DNA chips were read with a Hewlett-Packard GeneArray Scanner at a resolution of […] and were analyzed with the GeneSpring software (Silicon Genetics, Redwood City, Calif.). Details of this analysis will be published elsewhere (Hsu et al., manuscript in preparation).
Gene assays provide a valuable tool for studying the broad response of cells to agents, and we have used this approach to compare the differential effects of GTPP on gene expression in NHEK and human oral squamous carcinoma cells (Hsu, et al, manuscript in preparation). […] See also Hsu, S. et al. (2005) JPET 315:805-811, which is incorporated by reference in its entirety.

Structure (SMILES): O=C(O[C@@H]1Cc2c(O)cc(O)cc2O[C@@H]1c1cc(O)c(O)c(O)c1)c1cc(O)c(O)c(O)c1 [EGCG, (−)-epigallocatechin-3-gallate]
- 60 kDa, SS-A/Ro (210438_x_at) expression, normalized (2 h): 0.92
- 60 kDa, SS-A/Ro (212852_s_at) expression, normalized (2 h): 0.98
- Ku autoantigen, 80 kDa (208642_s_at) expression, normalized (2 h): 1.14
- Ku autoantigen, 80 kDa (208643_s_at) expression, normalized (2 h): 1.40
- Nuclear antigen SP100 (202863_at) expression, normalized (2 h): 1.04
- Nuclear antigen SP100 (202864_s_at) expression, normalized (2 h): 1.21
- Nuclear antigen SP10075 kDa (213226_at) expression, normalized (2 h): 1.09
- RNA polymerase 1 (202692_s-at) expression, normalized (2 h): 0.48
- SS-B/La (201138_s_at) expression, normalized (2 h): 0.88
- SS-B/La (201139_s_at) expression, normalized (2 h): 0.74
- centromere protein C1 (20473_at) expression, normalized (2 h): 0.46
- coilin (203653_s_at) expression, normalized (2 h): 0.54
- coilin (203654_s_at) expression, normalized (2 h): 0.78
- fodrin-α (208611_s_at) expression, normalized (2 h): 0.75
- fodrin-α (215235_s_at) expression, normalized (2 h): 0.97
- golgin-67 (208797_s_at) expression, normalized (2 h): 0.71
- golgin-67 (208798_x_at) expression, normalized (2 h): 0.46
- golgin-67 (210425_x_at) expression, normalized (2 h): 0.47
- golgin-67 (213650_at) expression, normalized (2 h): 0.61
- scleroderma autoantigen 1, 75 kDa (213226_at) expression, normalized (2 h): 1.09
- spectrin-β non-erythrocyctic 1 (212071_s_at) expression, normalized (2 h): 0.92
- thyroid autoantigen 70 kDa (Ku antigen) (200792_at) expression, normalized (2 h): 1.19
- ADPRT [poly(ADP)-ribose polymerase] expression (2 h, vs time zero): 1.201 fold
- ANAP12 expression (2 h, vs time zero): 0.991 fold
- ANXA11 expression (2 h, vs time zero): 1.26 fold
- CALR expression (2 h, vs time zero): 0.943 fold
- CBARA1 expression (2 h, vs time zero): 0.773 fold
- CENPA expression (2 h, vs time zero): 1.095 fold
- CENPB expression (2 h, vs time zero): 0.773 fold
- CENPC1 expression (2 h, vs time zero): 0.457 fold
- CHD4 expression (2 h, vs time zero): 0.811 fold
- COL17A1 expression (2 h, vs time zero): 1.102 fold
- CTDSP1 expression (2 h, vs time zero): 1.00 fold
- CTDSP2 expression (2 h, vs time zero): 1.21 fold
- CTDSPL expression (2 h, vs time zero): 1.12 fold
- DLAT expression (2 h, vs time zero): 0.924 fold
- EPPK1 expression (2 h, vs time zero): 0.856 fold
- FBL expression (2 h, vs time zero): 1.12 fold
- FLJ31657 expression (2 h, vs time zero): 0.608 fold
- FLNB (Filamin B, β) expression (2 h, vs time zero): 1.168 fold
- FLNB (Filamin B, γ) expression (2 h, vs time zero): 0.92 fold
- G22P1 (Thyroid autoantigen, 70 kDa, Ku antigen) expression (2 h, vs time zero): 1.185 fold
- GMEB2 expression (2 h, vs time zero): 0.739 fold
- GOLGA1 expression (2 h, vs time zero): 0.182 fold
- GOLGA2 expression (2 h, vs time zero): 0.642 fold
- GOLGA3 expression (2 h, vs time zero): 0.58 fold
- GOLGA4 expression (2 h, vs time zero): 0.748 fold
- GOLGA5 expression (2 h, vs time zero): 0.928 fold
- GOLGB1 expression (2 h, vs time zero): 0.704 fold
- HARS expression (2 h, vs time zero): 1.11 fold
- HARSL expression (2 h, vs time zero): 1.05 fold
- HSA6591 expression (2 h, vs time zero): 0.835 fold
- HUMAUANTIG expression (2 h, vs time zero): 0.779 fold
- IMP-2 expression (2 h, vs time zero): 1.366 fold
- LAD1 expression (2 h, vs time zero): 0.681 fold
- LMO4 expression (repeat 1) (2 h, vs time zero): 0.867 fold
- LMO4 expression (repeat 2) (2 h, vs time zero): 1.199 fold
- MGC5560 expression (repeat 1) (2 h, vs time zero): 1.161 fold
- MGC5560 expression (repeat 2) (2 h, vs time zero): 0.932 fold
- NS (Nucleostemin) expression (2 h, vs time zero): 0.95 fold
- PDHB expression (2 h, vs time zero): 1.14 fold
- PDX1 expression (2 h, vs time zero): 0.765 fold
- PMSCL1, 75 kDa expression (2 h, vs time zero): 1.09 fold
- PMSCL2 expression (2 h, vs time zero): 0.938 fold
- POLR1B expression (2 h, vs time zero): 1.03 fold
- POLR1D expression (2 h, vs time zero): 0.96 fold
- POLR2A expression (repeat 1) (2 h, vs time zero): 1.29 fold
- POLR2A expression (repeat 2) (2 h, vs time zero): 0.45 fold
- POLR2B expression (2 h, vs time zero): 1.02 fold
- POLR2C expression (2 h, vs time zero): 1.60 fold
- POLR2D expression (2 h, vs time zero): 0.95 fold
- POLR2E expression (2 h, vs time zero): 0.70 fold
- POLR2F expression (2 h, vs time zero): 1.00 fold
- POLR2G expression (2 h, vs time zero): 1.02 fold
- POLR2H expression (2 h, vs time zero): 0.85 fold
- POLR3C expression (2 h, vs time zero): 0.73 fold
- POLR3G expression (2 h, vs time zero): 1.00 fold
- PSME3 expression (2 h, vs time zero): 1.151 fold
- RALY expression (2 h, vs time zero): 0.752 fold
- SART1 expression (2 h, vs time zero): 1.188 fold
- SLC25A16 expression (2 h, vs time zero): 0.886 fold
- SNRP70 expression (2 h, vs time zero): 1.01 fold
- SNRPA expression (2 h, vs time zero): 0.93 fold
- SNRPB2 expression (2 h, vs time zero): 0.67 fold
- SNRPB expression (repeat 1) (2 h, vs time zero): 0.95 fold
- SNRPB expression (repeat 2) (2 h, vs time zero): 0.79 fold
- SNRPC expression (2 h, vs time zero): 1.08 fold
- SNRPD1 expression (repeat 1) (2 h, vs time zero): 1.285 fold
- SNRPD1 expression (repeat 2) (2 h, vs time zero): 0.676 fold
- SOX13 expression (2 h, vs time zero): 0.771 fold
- SP100 expression (repeat 1) (2 h, vs time zero): 1.037 fold
- SP100 expression (repeat 2) (2 h, vs time zero): 1.205 fold
- SP110 expression (repeat 1) (2 h, vs time zero): 1.702 fold
- SP110 expression (repeat 2) (2 h, vs time zero): 1.804 fold
- SP110 expression (repeat 3) (2 h, vs time zero): 1.026 fold
- SPTAN1 (α-fodrin) expression (repeat 1) (2 h, vs time zero): 0.75 fold
- SPTAN1 (α-fodrin) expression (repeat 2) (2 h, vs time zero): 0.97 fold
- SPTBN expression (2 h, vs time zero): 0.92 fold
- SSA2 (autoantigen SS-A/Ro) expression (repeat 2) (2 h, vs time zero): 0.919 fold
- SSA2 expression (repeat 1) (2 h, vs time zero): 0.335 fold
- SSA2 expression (repeat 3) (2 h, vs time zero): 0.957 fold
- SSA2 expression (repeat 4) (2 h, vs time zero): 0.98 fold
- SSB (autoantigen La) expression (repeat 1) (2 h, vs time zero): 0.878 fold
- SSB (autoantigen La) expression (repeat 2) (2 h, vs time zero): 0.739 fold
- SSNA1 expression (2 h, vs time zero): 1.17 fold
- SSSCA1 expression (2 h, vs time zero): 1.694 fold
- STRN3 expression (2 h, vs time zero): 0.623 fold
- TOP1 expression (repeat 1) (2 h, vs time zero): 1.09 fold
- TOP1 expression (repeat 2) (2 h, vs time zero): 0.62 fold
- UBTF expression (2 h, vs time zero): 0.484 fold
- XRCC5 (Ku autoantigen, 80 kDa) expression (repeat 1) (2 h, vs time zero): 1.403 fold
- XRCC5 (Ku autoantigen, 80 kDa) expression (repeat 2) (2 h, vs time zero): 1.141 fold
- dJ963E22.1 expression (2 h, vs time zero): 0.864 fold
- α-NAC expression (2 h, vs time zero): 0.521 fold
- 60 kDa, SS-A/Ro (210438_x_at) expression, normalized (6 h): 0.69
